Our source for the GI50 and TGI values is PubChem BioAssay (NCI).

Holding throughout (assay): NCI-60 cell line screen, 48 h
The test system of assay [1] is A549 NSCLC.
Assay [2] deals with DU-145 prostate.
For assay [3], the system named is SN12C renal.
In assay [4] the test system is SF-539 CNS.
The test system of assay [5] is HOP-92 NSCLC.
For assay [6], the system named is A498 renal.
The test system of assay [7] is HCT-15 colon.
In assay [8] the test system is SK-MEL-5 melanoma.
The test system of assay [9] is COLO 205 colon.
In assay [10] the test system is NCI/ADR-RES ovarian.

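Five concentrations, 48 hours, 96-well plates. Here, GI50 denotes the concentration required for 50% inhibition of growth. Definition used: TGI = concentration required for complete inhibition of growth.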

With `Cc1cc(C)c2c(n1)sc1c(N)ncnc12`, the GI50 is greater than 25 µM in assay [1]; greater than 25 µM in [2]; greater than 22.3 µM in [3]; greater than 24.1 µM in [4]; 1.43 µM in assay [5]; 4.9 µM in assay [6]. The GI50 in [7] was greater than 25 µM; in assay [8] it was greater than 25 µM; in assay [9], 17 µM; in [10] it was greater than 25 µM. The TGI in assay [1] was greater than 25 µM; in [2], greater than 25 µM; in assay [3], greater than 25 µM; in [4], greater than 25 µM; in [5], greater than 14 µM; in [6], greater than 25 µM. Moreover, the TGI in assay [7], in assay [8], in [9] and in assay [10] was greater than 25 µM in each case.
For the molecule `C=C/C(C)=C/C[C@]1(C)[C@H](C)[C@@H](OC(=O)CCC)[C@H](O)[C@@]23C(=C[C@H](OC)C[C@@H]12)[C@@H](OC(=O)CCC)O[C@H]3OC(C)=O`, the GI50 in assay [1] is 1.65 µM; in assay [2] it was 1.53 µM; in [3], 0.316 µM; in [4], 0.566 µM; in assay [5], 0.303 µM; in [6], 0.223 µM. The GI50 in assay [7] is 0.34 µM; in [8] it was 0.704 µM; in assay [9] it was 0.444 µM; in [10], 0.88 µM. Besides, the TGI was found to be 3.62 µM in [1]; 2.9 µM in [2]; 1.4 µM in [3]; 1.6 µM in assay [4]; 1.13 µM in [5]; 0.645 µM in assay [6]. Further, the TGI was determined as 1.29 µM in [7], 2.03 µM in assay [8], 1.73 µM in assay [9] and 2.46 µM in assay [10].
On to `Cn1c(=O)c2[nH]c(SCCN3CCOCC3)nc2n(C)c1=S`, for which the TGI in assay [1], in [2], in assay [3], in assay [4], in assay [5] and in [6] was greater than 100 µM each time. The TGI in assay [7], in assay [8], in assay [9] and in [10] was greater than 100 µM each time.
For `CCn1c(-c2cc3c([nH]c4ccccc43)c(-c3cccc(O)c3)n2)n[nH]c1=S`, the GI50 was 4 µM in [1]; 4.87 µM in assay [2]; 4.02 µM in assay [3]; 2.42 µM in assay [4]; 0.327 µM in assay [6]; 3.37 µM in assay [7]. Besides, the GI50 in [8] is 1.45 µM; in assay [9], 7.65 µM; in assay [10], 3.15 µM. For the same molecule, the TGI was found to be 18.8 µM in assay [1]; 16.7 µM in assay [2]; 22.1 µM in [3]; 9.27 µM in assay [4]; 4.38 µM in assay [6]; 16.1 µM in assay [7]. Besides, the figures for the TGI in [8], in assay [9] and in [10] were 3.06 µM, 24.3 µM and 42 µM, respectively.
Turning to `CCN1CCN(Cc2ccc(NC(=O)Nc3nc4ccc(Oc5ccnc(C(=O)NC)c5)cc4s3)cc2C(F)(F)F)CC1`, the GI50 is 1.99 µM in [1]; 1.76 µM in assay [2]; 1.8 µM in assay [3]; 1.54 µM in assay [4]; 1.94 µM in assay [5]; 1.83 µM in assay [6]. The GI50 in [7] is 1.65 µM; in assay [8], 1.52 µM; in assay [9], 1.8 µM; in [10], 1.95 µM. In addition, the TGI in assay [1] turned out to be 3.71 µM; in assay [2], 3.62 µM; in assay [3], 3.66 µM; in assay [4] it was 2.97 µM; in assay [5], 3.91 µM; in assay [6], 3.54 µM. Also, the TGI in assay [7] is 3.38 µM; in assay [8] it was 2.9 µM; in [9], 3.39 µM; in assay [10] it was 4.21 µM.
`CN(C)c1nc(=NCc2ccco2)ss1`: the TGI in assay [1] was greater than 76.7 µM; in assay [2], greater than 100 µM; in assay [3], 57.2 µM; in assay [4], 19.8 µM; in assay [6], greater than 100 µM; in assay [7] it was 49.9 µM. In addition, the TGI is greater than 100 µM in assay [8], greater than 68.5 µM in assay [9] and greater than 100 µM in assay [10].
For `CCCn1cnc2c(SCC(=O)O)nc(N)nc21`, the TGI in assay [1], in [2], in [3], in assay [5], in assay [6] and in assay [7] was greater than 100 µM in each case. In addition, the TGI in assay [8], in assay [9] and in assay [10] was greater than 100 µM each time.
On to `CN1CCN(CCOc2ccc(-c3cnc4c(-c5cccc(F)c5)cnn4c3)cc2)CC1`, for which the GI50 in [1] was 1.9 µM; in [2], 1.74 µM; in [3], 1.82 µM; in assay [4] it was 1.49 µM; in assay [5], 1.41 µM; in [6], 1.76 µM. Also, the GI50 in [7] is 1.52 µM; in assay [8], 1.69 µM; in assay [10], 2.47 µM. The TGI was 3.94 µM in assay [1]; 3.28 µM in [2]; 3.76 µM in [3]; 2.88 µM in assay [4]; 3.2 µM in [5]; 5.7 µM in assay [6]. Besides, the TGI stood at 2.92 µM in assay [7], 3.08 µM in assay [8] and 6.14 µM in [10].
Consider `CCCCCCCC(=O)OCCCC1[C@]2(C)CC[C@@]3(C)C([C@H](C)CCC=C(C)C)CC[C@]3(C)C2CC[C@]12OC2(C)C` (some centres undefined), for which the GI50 was 32.4 µM in assay [1]; 38.1 µM in assay [2]; 26.5 µM in assay [4]; 28.2 µM in assay [5]; greater than 100 µM in assay [6]; 29.4 µM in assay [7]. In addition, the GI50 is 33.9 µM in assay [8], 39.7 µM in assay [9] and 35 µM in assay [10]. In addition, the TGI was greater than 100 µM in [1]; greater than 100 µM in [2]; 59.5 µM in assay [4]; greater than 100 µM in assay [5]; greater than 100 µM in assay [6]; greater than 100 µM in assay [7]. Moreover, the TGI in [8], in assay [9] and in assay [10] was greater than 100 µM each time.
For `CNNC(=N\S(=O)(=O)c1cc(C)c(Cl)cc1SCc1ccccc1)/N=C/c1ccc([N+](=O)[O-])s1`, the GI50 in assay [1] is 59.2 µM; in [2], greater than 100 µM; in assay [3] it was greater than 100 µM; in [4] it was greater than 100 µM; in assay [5], 10.9 µM; in assay [8], 1.48 µM. In addition, the GI50 in assay [9] was 0.776 µM; in [10], greater than 100 µM. Also, the TGI was greater than 100 µM in [1]; greater than 100 µM in assay [2]; greater than 100 µM in assay [3]; greater than 100 µM in [4]; greater than 83.8 µM in assay [5]; greater than 100 µM in [7]. Besides, the TGI in [8] was greater than 37.3 µM; in [10] it was greater than 100 µM.
In the case of `NCCCCC1NC(=O)C(CC(=O)O)NC(=O)CNC(=O)C(CCCN=C(N)N)NC(=O)C(N)CSSCC(C(=O)O)NC(=O)C(CC(=O)O)NC(=O)C2CCCN2C(=O)CNC1=O` (centres undefined), the GI50 in assay [1], in [2], in assay [3], in [4], in assay [6] and in assay [7] was greater than 100 µM in each case. Also, the GI50 in [8], in assay [9] and in [10] was greater than 100 µM each time. Moreover, the TGI in assay [1], in assay [2], in [3], in assay [4], in assay [6] and in assay [7] was greater than 100 µM each time. Also, the TGI in assay [8], in assay [9] and in [10] was greater than 100 µM throughout.
In the case of `CCOC(=O)c1c(C)n(Cc2ccc(Cl)cc2Cl)c2c1cc1oc(=O)c(=O)n3cnc2c13`, the GI50 is 9.71 µM in [1]; 17.3 µM in assay [2]; 19 µM in assay [3]; 20.6 µM in assay [4]; 13.9 µM in assay [5]; 20.6 µM in assay [6]. For the same molecule, the GI50 in [7] is 13.7 µM; in assay [8], 18 µM; in assay [9], 17 µM. Also, the TGI stood at 21.9 µM in [1]; 32.9 µM in [2]; 35.2 µM in assay [3]; 38.3 µM in assay [4]; 27.2 µM in assay [5]; 36.1 µM in assay [6]. Moreover, the TGI in assay [7] came out at 27.3 µM; in assay [8] it was 34.3 µM; in [9], 33.3 µM.
In the case of `CCCCCN(CCCCC)CC(O)c1cc(Cl)ccc1OC` (centres undefined), the GI50 in [1] is 6.61 µM; in assay [2], 10.8 µM; in [3], 10.5 µM; in [4], 10.8 µM; in assay [6] it was 11.6 µM; in assay [7], 6.32 µM. Besides, the GI50 in assay [8] was 5.75 µM; in assay [9], 5.11 µM; in assay [10], 9.26 µM. For the same molecule, the TGI in [1] worked out at 24.7 µM; in assay [2] it was 23.5 µM; in assay [3], 28.8 µM; in assay [4], 24.3 µM; in [6], 29.3 µM; in assay [7] it was 21.5 µM. In addition, the TGI in assay [8] came out at 18.5 µM; in [9], 18.6 µM; in assay [10], 25.9 µM.
With `NS(=O)(=O)c1ccc(N2N=C3c4ccccc4CC3C2c2cccs2)cc1` (centres undefined), the GI50 was 13.1 µM in assay [1]; 14.5 µM in [2]; 23.5 µM in [3]; 17.4 µM in [4]; 25.8 µM in assay [5]; 34.7 µM in assay [7]. In addition, the GI50 was 18 µM in assay [8], 58.9 µM in assay [9] and 17.1 µM in assay [10]. In addition, the TGI in assay [1] was 32.1 µM; in [2], 37.7 µM; in assay [3], 48.9 µM; in [4], 48.1 µM; in assay [5] it was 55.8 µM; in assay [7], greater than 100 µM. The TGI is 43.5 µM in [8], greater than 100 µM in [9] and 43.4 µM in [10].
On to `COc1ccc(Nc2nc3ccccc3c3occc23)cc1`, for which the GI50 was 32.9 µM in [1]; 6.65 µM in [2]; 7.37 µM in assay [3]; 8.89 µM in [4]; 7.62 µM in assay [5]; 2.95 µM in assay [7]. The GI50 in [8] is 5.08 µM; in assay [9], 7.71 µM; in assay [10], 9.32 µM. Further, the TGI in [1] is greater than 50 µM; in [2] it was 13.1 µM; in assay [3], 17.5 µM; in assay [4] it was 18.9 µM; in assay [5] it was 21.8 µM; in [7], 10.7 µM. For the same molecule, the TGI in [8] came to 11.1 µM; in [9] it was 18.6 µM; in assay [10], 18.7 µM.
For `CCC(C)Oc1nc2c(c(=O)n(C)c(=O)n2C)n1C` (centres undefined), the GI50 in assay [1], in assay [2], in assay [3], in assay [4], in [5] and in assay [7] was greater than 100 µM throughout. Further, the GI50 in [8], in [9] and in assay [10] was greater than 100 µM throughout. Also, the TGI in [1], in assay [2], in assay [3], in assay [4], in [5] and in assay [7] was greater than 100 µM throughout. Further, the TGI in assay [8], in [9] and in assay [10] was greater than 100 µM in each case.
`NC(=O)[C@@H](CC1CC1)[C@@H](CCC(F)(F)F)C(=O)N[C@H]1N=C(c2ccccc2)c2cccc(F)c2NC1=O`: the GI50 in [1] is greater than 100 µM; in assay [2], greater than 100 µM; in assay [3], greater than 100 µM; in assay [4], 17.4 µM; in assay [5], 19.3 µM; in assay [7] it was greater than 100 µM. Besides, the GI50 in assay [8] is 17.7 µM; in [9], greater than 100 µM; in assay [10] it was greater than 100 µM. Moreover, the TGI was greater than 100 µM in [1]; greater than 100 µM in assay [2]; greater than 100 µM in assay [3]; 38.9 µM in assay [4]; greater than 100 µM in assay [5]; greater than 100 µM in [7]. For the same molecule, the results for the TGI in assay [8], in assay [9] and in assay [10] were 35.1 µM, greater than 100 µM and greater than 100 µM, respectively.
